Measured values reported in patent US10189836B2, “Therapeutic compounds, compositions and methods of use thereof” (Genentech, Inc., priority 2015, dated 2019).

Tests used:
[1] = biological target: isolated recombinant JAK2 kinase domain (Homo sapiens (Human), UniProt O60674); test: JAK2 enzyme assay (Caliper LabChip, Ki); type: biochemical; settings: isolated recombinant JAK2 kinase domain, 0.2 nM enzyme, ATP 25 μM
[2] = biological target: isolated recombinant JAK1 kinase domain (Homo sapiens (Human), UniProt P23458); test: JAK1 enzyme assay (Caliper LabChip, Ki); type: biochemical; settings: isolated recombinant JAK1 kinase domain, 1.5 nM enzyme, ATP 25 μM
Chain of isolated recombinant JAK1 kinase domain (P23458 875-1153): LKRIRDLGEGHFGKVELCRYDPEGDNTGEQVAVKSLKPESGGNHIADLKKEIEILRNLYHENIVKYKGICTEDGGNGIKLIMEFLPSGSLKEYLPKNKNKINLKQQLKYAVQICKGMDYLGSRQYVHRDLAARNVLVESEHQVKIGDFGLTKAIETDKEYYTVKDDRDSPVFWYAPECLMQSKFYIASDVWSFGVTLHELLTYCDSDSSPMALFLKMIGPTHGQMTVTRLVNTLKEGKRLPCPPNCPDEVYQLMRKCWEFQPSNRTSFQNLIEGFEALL

Chain of isolated recombinant JAK2 kinase domain (O60674 849-1124): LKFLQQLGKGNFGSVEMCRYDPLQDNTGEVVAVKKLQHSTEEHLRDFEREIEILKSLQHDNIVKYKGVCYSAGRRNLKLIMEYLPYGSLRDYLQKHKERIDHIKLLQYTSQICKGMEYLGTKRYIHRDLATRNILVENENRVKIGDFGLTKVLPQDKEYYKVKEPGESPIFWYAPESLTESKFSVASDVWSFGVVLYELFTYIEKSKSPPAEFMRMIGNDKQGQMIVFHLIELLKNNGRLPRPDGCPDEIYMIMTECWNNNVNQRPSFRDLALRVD

Row | SMILES | Ki [1] [nM] | Ki [2] [nM]
1 | CN1CCN(C(=O)Cn2cc(Nc3nc4c(N5CC6CCC(C5)N6C(=O)CC(O)C(F)(F)F)cccn4n3)cn2)CC1 (centres unmarked) [Example 154, 4,4,4-trifluoro-3-hydroxy-1-[3-[2-[[1-[2-(4-methylpiperazin-1-yl)-2-oxo-ethyl]pyrazol-4-yl]amino]-[1,2,4]triazolo[1,5-a]pyridin-8-yl]-3,8-diazabicyclo[3.2.1]octan-8-yl]butan-1-one] | 0.9 | 0.5
2 | CN1CCN(C(=O)Cn2cc(Nc3nc4c(N5CC6CCC(C5)N6S(=O)(=O)c5cccc(F)c5)cccn4n3)cn2)CC1 [Example 156, 2-[4-[[8-[8-(3-fluorophenyl)sulfonyl-3,8-diazabicyclo[3.2.1]octan-3-yl]-[1,2,4]triazolo[1,5-a]pyridin-2-yl]amino]pyrazol-1-yl]-1-(4-methylpiperazin-1-yl)ethanone] | 3.7 | 1.3
3 | CN1CCN(C(=O)Cn2cc(Nc3nc4c(N5CC6CCC(C5)N6C(=O)c5ccsc5)cccn4n3)cn2)CC1 [Example 157, 1-(4-methylpiperazin-1-yl)-2-[4-[[8-[8-(thiophene-3-carbonyl)-3,8-diazabicyclo[3.2.1]octan-3-yl]-[1,2,4]triazolo[1,5-a]pyridin-2-yl]amino]pyrazol-1-yl]ethanone] | 1.4 | 0.4
4 | CN1CCN(C(=O)Cn2cc(Nc3nc4c(N5CC6CCC(C5)N6S(=O)(=O)Cc5ccccc5F)cccn4n3)cn2)CC1 [Example 158, 2-[4-[[8-[8-[(2-fluorophenyl)methylsulfonyl]-3,8-diazabicyclo[3.2.1]octan-3-yl]-[1,2,4]triazolo[1,5-a]pyridin-2-yl]amino]pyrazol-1-yl]-1-(4-methylpiperazin-1-yl)ethanone] | 2.8 | 0.9
5 | CN1CCN(C(=O)Cn2cc(Nc3nc4c(N5CC6CCC(C5)N6S(=O)(=O)Cc5cccc(F)c5)cccn4n3)cn2)CC1 [Example 159, 2-[4-[[8-[8-[(3-fluorophenyl)methylsulfonyl]-3,8-diazabicyclo[3.2.1]octan-3-yl]-[1,2,4]triazolo[1,5-a]pyridin-2-yl]amino]pyrazol-1-yl]-1-(4-methylpiperazin-1-yl)ethanone] | 2.9 | 0.7
6 | CN1CCN(C(=O)Cn2cc(Nc3nc4c(N5CC6CCC(C5)N6S(=O)(=O)Cc5ccc(F)cc5)cccn4n3)cn2)CC1 [Example 160, 2-[4-[[8-[8-[(4-fluorophenyl)methylsulfonyl]-3,8-diazabicyclo[3.2.1]octan-3-yl]-[1,2,4]triazolo[1,5-a]pyridin-2-yl]amino]pyrazol-1-yl]-1-(4-methylpiperazin-1-yl)ethanone] | 0.9 | 0.6
7 | CN1CCN(C(=O)Cn2cc(Nc3nc4c(N5CC6CCC(C5)N6S(=O)(=O)Cc5ccccc5Cl)cccn4n3)cn2)CC1 [Example 161, 2-[4-[[8-[8-[(2-chlorophenyl)methylsulfonyl]-3,8-diazabicyclo[3.2.1]octan-3-yl]-[1,2,4]triazolo[1,5-a]pyridin-2-yl]amino]pyrazol-1-yl]-1-(4-methylpiperazin-1-yl)ethanone] | 0.7 | 0.6
8 | CN1CCN(C(=O)Cn2cc(Nc3nc4c(N5C[C@H]6CC[C@@H](C5)[C@H]6OCc5ccc(F)nc5)cccn4n3)cn2)CC1 [Example 162, 1-(4-methylpiperazin-1-yl)-2-[4-[[8-[rac-(1S,5R)-8-[(6-fluoro-3-pyridyl)methoxy]-3-azabicyclo[3.2.1]octan-3-yl]-[1,2,4]triazolo[1,5-a]pyridin-2-yl]amino]pyrazol-1-yl]ethanone] | 0.6 | 0.6
9 | CN1CCN(C(=O)Cn2cc(Nc3nc4c(N5C[C@H]6CC[C@@H](C5)[C@H]6N(C)C(=O)CC(F)(F)F)cccn4n3)cn2)CC1 [Example 164, 3,3,3-trifluoro-N-methyl-N-[rac-(1S,5R)-3-[2-[[1-[2-(4-methylpiperazin-1-yl)-2-oxo-ethyl]pyrazol-4-yl]amino]-[1,2,4]triazolo[1,5-a]pyridin-8-yl]-3-azabicyclo[3.2.1]octan-8-yl]propanamide] | 1 | 0.7
10 | CN1CCN(C(=O)Cn2cc(Nc3nc4c(N5CC6CCC(C5)N6S(=O)(=O)Cc5cccc(Cl)c5)cccn4n3)cn2)CC1 [Example 165, 2-[4-[[8-[8-[(3-chlorophenyl)methylsulfonyl]-3,8-diazabicyclo[3.2.1]octan-3-yl]-[1,2,4]triazolo[1,5-a]pyridin-2-yl]amino]pyrazol-1-yl]-1-(4-methylpiperazin-1-yl)ethanone] | 0.8 | 0.4
11 | CN1CCN(C(=O)Cn2cc(Nc3nc4c(N5CC6CCC(C5)N6S(=O)(=O)Cc5ccc(Cl)cc5)cccn4n3)cn2)CC1 [Example 166, 2-[4-[[8-[8-[(4-chlorophenyl)methylsulfonyl]-3,8-diazabicyclo[3.2.1]octan-3-yl]-[1,2,4]triazolo[1,5-a]pyridin-2-yl]amino]pyrazol-1-yl]-1-(4-methylpiperazin-1-yl)ethanone] | 0.9 | 0.7
12 | CN1CCN(C(=O)Cn2cc(Nc3nc4c(N5CC6CCC(C5)N6S(=O)(=O)Cc5ccccc5C(F)(F)F)cccn4n3)cn2)CC1 [Example 167, 1-(4-methylpiperazin-1-yl)-2-[4-[[8-[8-([2-(trifluoromethyl)phenyl]methylsulfonyl]-3,8-diazabicyclo[3.2.1]octan-3-yl]-[1,2,4]triazolo[1,5-a]pyridin-2-yl]amino]pyrazol-1-yl]ethanone] | 1 | 0.6
13 | CN1CCN(C(=O)Cn2cc(Nc3nc4c(N5CC6CCC(C5)N6S(=O)(=O)Cc5ccc(C#N)cc5)cccn4n3)cn2)CC1 [Example 168, 4-[[3-[2-[[1-[2-(4-methylpiperazin-1-yl)-2-oxo-ethyl]pyrazo1-4-yl]amino]-[1,2,4]triazolo[1,5-a]pyridin-8-yl]-3,8-diazabicyclo[3.2.1]octan-8-yl]sulfonylmethyl]-benzonitrile] | 4.4 | 2.7
14 | CSc1cccc(S(=O)(=O)N2C3CCC2CN(c2cccn4nc(Nc5cnn(CC(=O)N6CCN(C)CC6)c5)nc24)C3)c1 [Example 169, 1-(4-methylpiperazin-1-yl)-2-[4-[[8-[8-(3-methylsulfanylphenyl)sulfonyl-3,8-diazabicyclo[3.2.1]octan-3-yl]-[1,2,4]triazolo[1,5-a]pyridin-2-yl]amino]pyrazol-1-yl]ethanone] | 0.6 | 0.6
15 | CN1CCN(C(=O)Cn2cc(Nc3nc4c(N5CC6CCC(C5)N6C(=O)N5CC(F)C5)cccn4n3)cn2)CC1 [Example 170, 2-[4-[[8-[8-(3-fluoroazetidine-1-carbonyl)-3,8-diazabicyclo[3.2.1]octan-3-yl]-[1,2,4]triazolo[1,5-a]pyridin-2-yl]amino]pyrazol-1-yl]-1-(4-methylpiperazin-1-yl)ethanone] | 0.2 | 0.3
16 | CSC1CN(C(=O)N2C3CCC2CN(c2cccn4nc(Nc5cnn(CC(=O)N6CCN(C)CC6)c5)nc24)C3)C1 [Example 171, 1-(4-methylpiperazin-1-yl)-2-[4-[[8-[8-(3-methylsulfanylazetidine-1-carbonyl)-3,8-diazabicyclo[3.2.1]octan-3-yl]-[1,2,4]triazolo[1,5-a]pyridin-2-yl]amino]pyrazol-1-yl]ethanone] | 2.9 | 1.3
17 | CSC1CCN(C(=O)N2C3CCC2CN(c2cccn4nc(Nc5cnn(CC(=O)N6CCN(C)CC6)c5)nc24)C3)C1 (centres unmarked) [Example 172, 1-(4-methylpiperazin-1-yl)-2-[4-[[8-[8-(3-methylsulfanylpyrrolidine-1-carbonyl)-3,8-diazabicyclo[3.2.1]octan-3-yl]-[1,2,4]triazolo[1,5-a]pyridin-2-yl]amino]pyrazol-1-yl]ethanone] | 0.9 | 0.6
18 | CN1CCN(C(=O)Cn2cc(Nc3nc4c(N5CC6CCC(C5)N6C(=O)N5CC(F)(F)C5)cccn4n3)cn2)CC1 [Example 173, 2-[4-[[8-[8-(3,3-difluoroazetidine-1-carbonyl)-3,8-diazabicyclo[3.2.1]octan-3-yl]-[1,2,4]triazolo[1,5-a]pyridin-2-yl]amino]pyrazol-1-yl]-1-(4-methylpiperazin-1-yl)ethanone] | 0.5 | 0.5
19 | CN1CCN(C(=O)Cn2cc(Nc3nc4c(N5CC6CCC(C5)N6S(=O)(=O)CCCC(F)(F)F)cccn4n3)cn2)CC1 [Example 174, 1-(4-methylpiperazin-1-yl)-2-[4-[[8-[8-(4,4,4-trifluorobutylsulfonyl)-3,8-diazabicyclo[3.2.1]octan-3-yl]-[1,2,4]triazolo[1,5-a]pyridin-2-yl]amino]pyrazol-1-yl]ethanone] | 1.1 | 0.7
20 | CN1CCN(C(=O)Cn2cc(Nc3nc4c(N5CC6CCC(C5)N6S(=O)(=O)c5cccnc5)cccn4n3)cn2)CC1 [Example 175, 1-(4-methylpiperazin-1-yl)-2-[4-[[8-[8-(3-pyridylsulfonyl)-3,8-diazabicyclo[3.2.1]octan-3-yl]-[1,2,4]triazolo[1,5-a]pyridin-2-yl]amino]pyrazol-1-yl]ethanone] | 0.9 | 0.6
21 | CN1CCN(C(=O)Cn2cc(Nc3nc4c(N5CC6CCC(C5)N6S(=O)(=O)CCCC#N)cccn4n3)cn2)CC1 [Example 176, 4-[[3-[2-[[1-[2-(4-methylpiperazin-1-yl)-2-oxo-ethyl]pyrazol-4-yl]amino]-[1,2,4]triazolo[1,5-a]pyridin-8-yl]-3,8-diazabicyclo[3.2.1]octan-8-yl]sulfonyl]butanenitrile] | 3.4 | 0.7
22 | CN1CCN(C(=O)Cn2cc(Nc3nc4c(N5CC6CCC(C5)N6S(=O)(=O)C5CC5)cccn4n3)cn2)CC1 [Example 177, 2-[4-[[8-(8-cyclopropylsulfonyl-3,8-diazabicyclo[3.2.1]octan-3-yl)-[1,2,4]triazolo[1,5-a]pyridin-2-yl]amino]pyrazol-1-yl]-1-(4-methylpiperazin-1-yl)ethanone] | 7.5 | 2.1
